From BigSolDB 2.1

Nc1nc(NC2CC2)c2ncn([C@H]3C=C[C@@H](CO)C3)c2n1
solubility (mole fraction)
Settings	278.15 K	283.15 K	288.15 K	293.15 K	298.15 K	303.15 K	308.15 K	313.15 K	318.15 K	323.15 K
in acetone	0.00115	0.00123	0.00131	0.00142	0.00155	0.00169	0.00183	0.00205	0.00225	0.00247
in ethanol	0.00601	0.00651	0.00716	0.00803	0.00903	0.0104	0.0123	0.0142	0.0162	0.0184
in ethyl acetate	0.000631	0.000705	0.000796	0.000906	0.00102	0.00112	0.00127	0.00147	0.00168	0.00192
in isobutanol	0.00772	0.00823	0.00896	0.0101	0.0113	0.0121	0.0131	0.0144	0.0164	0.0182
in isopropanol	0.00451	0.00483	0.00534	0.006	0.00655	0.00744	0.00855	0.0096	0.0111	0.0123
in methanol	0.00623	0.00688	0.00825	0.00965	0.0109	0.0126	0.0147	0.0181	0.0209	0.0241
in methyl acetate	0.000901	0.00101	0.0011	0.00123	0.0014	0.00156	0.00176	0.00206	0.0023	0.0026
in n-butanol	0.00718	0.00798	0.0089	0.0103	0.0117	0.0133	0.0155	0.0177	0.0204	0.0231
in n-pentanol	0.00898	0.0106	0.012	0.0134	0.0153	0.0169	0.0195	0.0226	0.0248	0.0277
in n-propanol	0.00798	0.0087	0.00952	0.0107	0.0119	0.0136	0.0159	0.0184	0.0211	0.024
in sec-butanol	0.00768	0.00844	0.00927	0.0104	0.0118	0.0134	0.015	0.0172	0.0197	0.0222
in water	0.000239	0.000266	0.000295	0.000334	0.000386	0.000436	0.0005	0.000547	0.000649	0.000748
